Structures are written as SMILES.

What all share (assay type): functional, Artery
Holding throughout (conditions): route intragastric

Test [1] relates to Rattus norvegicus. Kind of test: Antihypertensive activity in spontaneously hypertensive Rattus norvegicus (rat) assessed as reduction of systolic blood pressure at 2 mg/kg, ig after 1 hr.
The test system of test [2] is Rattus norvegicus. Nature of the test: Antihypertensive activity in spontaneously hypertensive Rattus norvegicus (rat) assessed as reduction of systolic blood pressure at 2 mg/kg, ig after 4 hr.
Test [3] concerns Rattus norvegicus. Nature of the test: Antihypertensive activity in spontaneously hypertensive rat assessed as reduction of systolic blood pressure at 2 mg/kg, ig after 2 hr.
Test [4] has as its system Rattus norvegicus. Nature of the test: Antihypertensive activity in spontaneously hypertensive Rattus norvegicus (rat) assessed as reduction of systolic blood pressure at 4 mg/kg, ig after 8 hr.
The test system of test [5] is Rattus norvegicus. Kind of test: Antihypertensive activity in spontaneously hypertensive Rattus norvegicus (rat) assessed as reduction of systolic blood pressure at 4 mg/kg, ig after 6 hr.
In test [6] the test system is Rattus norvegicus. Kind of test: Antihypertensive activity in spontaneously hypertensive Rattus norvegicus (rat) assessed as reduction of systolic blood pressure at 4 mg/kg, ig after 4 hr.
Test [7] has as its system Rattus norvegicus. Kind of test: Antihypertensive activity in spontaneously hypertensive Rattus norvegicus (rat) assessed as reduction of systolic blood pressure at 4 mg/kg, ig after 2 hr.
In test [8] the test system is Rattus norvegicus. Kind of test: Antihypertensive activity in spontaneously hypertensive Rattus norvegicus (rat) assessed as reduction of systolic blood pressure at 4 mg/kg, ig after 1 hr.
The subject of test [9] is Rattus norvegicus. Nature of the test: Antihypertensive activity in spontaneously hypertensive Rattus norvegicus (rat) assessed as reduction of systolic blood pressure at 1 mg/kg, ig after 2 hr.
The test system of test [10] is Rattus norvegicus. Kind of test: Antihypertensive activity in spontaneously hypertensive Rattus norvegicus (rat) assessed as reduction of systolic blood pressure at 1 mg/kg, ig after 1 hr.

As for `CCCCCCCCOC(=O)C1=C(C)NC(C)=C(C(=O)OC)C1c1cccc([N+](=O)[O-])c1` (configuration not stated), the Activity in the test with Rattus norvegicus [1] was found to be 38 mmHg.
On the same count and under the same terms, the same measure for `CCCCCCCCCCOC(=O)C1=C(C)NC(C)=C(C(=O)OC)C1c1cccc([N+](=O)[O-])c1` (configuration not stated): 31 mmHg; for `CCCCCCCCCCCCOC(=O)C1=C(C)NC(C)=C(C(=O)OC)C1c1cccc([N+](=O)[O-])c1` (configuration not stated): 17 mmHg.
As for `CCCCCCCOC(=O)C1=C(C)NC(C)=C(C(=O)OC)[C@@H]1c1cccc([N+](=O)[O-])c1`, the Activity in the test with Rattus norvegicus [2] is -2 mmHg; in the test with Rattus norvegicus [3], 47 mmHg; with Rattus norvegicus [1], 93 mmHg.
Regarding `CCCOC(=O)C1=C(C)NC(C)=C(C(=O)OC)C1c1cccc([N+](=O)[O-])c1` (configuration not stated), the Activity with Rattus norvegicus [1] worked out at 43 mmHg.
Same read-out and setting: then `CCCCCOC(=O)C1=C(C)NC(C)=C(C(=O)OC)C1c1cccc([N+](=O)[O-])c1` (configuration not stated), with 44 mmHg.
Regarding `CCCCCCCOC(=O)C1=C(C)NC(C)=C(C(=O)OC)C1c1cccc([N+](=O)[O-])c1` (racemic), the Activity with Rattus norvegicus [4] was 21 mmHg; in the test with Rattus norvegicus [5] it was 45 mmHg; in the test on Rattus norvegicus [6], 67 mmHg; in the test on Rattus norvegicus [2], -4 mmHg; in the test on Rattus norvegicus [7], 107 mmHg; in the test on Rattus norvegicus [3], 42 mmHg. The Activity was 119 mmHg with Rattus norvegicus [8] and 52 mmHg in the test on Rattus norvegicus [1].
For `CCOC(=O)C1=C(C)NC(C)=C(C(=O)OC)C1c1cccc([N+](=O)[O-])c1` (stereo in doubt; 1) [NITRENDIPINE], the Activity with Rattus norvegicus [1] (2 mg/kg) came to 26 mmHg.
In the case of `CCOC(=O)C1=C(C)NC(C)=C(C(=O)OC)C1c1cccc([N+](=O)[O-])c1` (stereo in doubt; 2) [NITRENDIPINE], the Activity in the test on Rattus norvegicus [2] is on record as -2 mmHg; with Rattus norvegicus [9], 0 mmHg; with Rattus norvegicus [3], 8 mmHg; with Rattus norvegicus [10] it was 33 mmHg; in the test with Rattus norvegicus [1] (2 mg/kg) it was 39 mmHg.

These data come from ChEMBL document CHEMBL3046563, “Synthesis and antihypertensive activity evaluation in spontaneously hypertensive rats of nitrendipine analogues” (2011).
